In ChEMBL document CHEMBL1926511, “Novel amino-piperidines as potent antibacterials targeting bacterial type IIA topoisomerases” (Bioorg Med Chem Lett, 2011):
≈ marks a conversion by molar mass, not a printed value. Calls of active or inactive are those of the source. The rule behind the calls is not given here.

Legend:
[1] = Inhibition of Haemophilus influenzae DNA gyrase-dependent DNA replication by scintillation proximity assay
[2] = test system: Haemophilus influenzae; assay: Antibacterial activity against Haemophilus influenzae H128 after 18 to 24 hrs by broth microdilution method; assay type: functional
[3] = test system: Staphylococcus aureus; assay: Antibacterial activity against Staphylococcus aureus WCUH 29 after 18 to 24 hrs by broth microdilution method; assay type: functional
[4] = test system: Streptococcus pneumoniae; assay: Antibacterial activity against Streptococcus pneumoniae 1629 after 18 to 24 hrs by broth microdilution method; assay type: functional
[5] = Distribution coefficient, log D of the compound at pH 7.4; assay type: physicochemical; conditions: octanol/water
[6] = target: T1, Voltage-gated inwardly rectifying potassium channel KCNH2 (Homo sapiens, UniProt Q12809); assay: Inhibition of human ERG expressed in HEK293 cells by patch-clamp electrophysiology; assay type: cell-based
T1 sequence (Q12809 whole entry): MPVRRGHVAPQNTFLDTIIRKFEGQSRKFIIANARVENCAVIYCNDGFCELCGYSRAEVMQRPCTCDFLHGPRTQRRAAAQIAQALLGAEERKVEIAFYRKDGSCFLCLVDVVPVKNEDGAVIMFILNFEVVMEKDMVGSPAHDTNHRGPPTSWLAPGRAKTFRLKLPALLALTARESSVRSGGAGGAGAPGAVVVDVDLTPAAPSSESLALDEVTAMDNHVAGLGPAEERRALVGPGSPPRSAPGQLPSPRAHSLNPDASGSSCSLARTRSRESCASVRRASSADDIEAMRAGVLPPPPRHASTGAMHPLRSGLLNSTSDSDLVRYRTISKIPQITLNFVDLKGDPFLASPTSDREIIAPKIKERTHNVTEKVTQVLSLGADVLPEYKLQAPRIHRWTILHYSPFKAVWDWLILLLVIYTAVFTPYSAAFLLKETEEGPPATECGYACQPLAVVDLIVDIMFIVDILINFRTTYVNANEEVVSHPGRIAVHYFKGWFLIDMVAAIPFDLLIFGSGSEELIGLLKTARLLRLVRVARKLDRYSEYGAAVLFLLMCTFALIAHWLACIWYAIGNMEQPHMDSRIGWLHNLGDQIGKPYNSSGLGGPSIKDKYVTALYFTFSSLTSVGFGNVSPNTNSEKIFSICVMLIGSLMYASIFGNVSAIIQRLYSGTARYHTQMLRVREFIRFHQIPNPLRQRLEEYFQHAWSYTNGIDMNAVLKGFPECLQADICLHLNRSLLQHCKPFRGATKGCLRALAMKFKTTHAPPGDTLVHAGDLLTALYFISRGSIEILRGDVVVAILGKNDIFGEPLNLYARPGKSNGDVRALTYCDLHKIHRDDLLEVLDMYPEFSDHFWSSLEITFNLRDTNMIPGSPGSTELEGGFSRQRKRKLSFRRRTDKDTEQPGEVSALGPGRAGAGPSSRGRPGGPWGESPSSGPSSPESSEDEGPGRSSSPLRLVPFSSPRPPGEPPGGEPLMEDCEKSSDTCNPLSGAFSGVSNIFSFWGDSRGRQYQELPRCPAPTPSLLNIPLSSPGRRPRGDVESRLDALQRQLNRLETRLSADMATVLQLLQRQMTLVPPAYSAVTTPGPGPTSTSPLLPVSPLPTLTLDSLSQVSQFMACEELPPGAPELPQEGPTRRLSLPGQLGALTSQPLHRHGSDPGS

[7] = target: T1, Voltage-gated inwardly rectifying potassium channel KCNH2; assay: Displacement of [3H]dofetilide from human ERG by liquid scintillation counting
[8] = test system: Streptococcus pneumoniae; assay: Antibacterial activity against Streptococcus pneumoniae 1629 infected in rat respiratory tract infection model assessed as log reduction in bacterial burden at 50 mg/kg, po after 1 hr post infection relative to non-treated control; assay type: functional
[9] = test system: Streptococcus pneumoniae; assay: Antibacterial activity against Streptococcus pneumoniae 1629 infected in rat respiratory tract infection model assessed as log reduction in bacterial burden at 50 mg/kg, po after 48 hrs post infection relative to non-treated control; assay type: functional
[10] = test system: Streptococcus pneumoniae; assay: Antibacterial activity against Streptococcus pneumoniae 1629 infected in rat respiratory tract infection model assessed as complete eradication of bacterial burden at 50 mg/kg, po after 31 hrs post infection; assay type: functional, organism-based; design: dose 50 mg/kg
[11] = Inhibition of Escherichia coli DNA gyrase-dependent DNA replication by scintillation proximity assay
[12] = Blood clearance in Sprague-Dawley rat at 3.5 mg/kg, iv; assay type: ADME, organism-based; design: dose 3.5 mg/kg, route intravenous; conditions: whole blood
[13] = Blood clearance in Beagle dog at 3.5 mg/kg, iv; assay type: ADME, organism-based, Canis lupus familiaris; design: dose 3.5 mg/kg, route intravenous; conditions: whole blood
[14] = Blood clearance in cynomolgus monkey at 3.1 mg/kg, iv; assay type: ADME, organism-based, Macaca fascicularis; design: dose 3.1 mg/kg, route intravenous; conditions: whole blood
[15] = Volume of distribution at steady state in Sprague-Dawley rat at 3.5 mg/kg, iv; assay type: ADME, organism-based; design: dose 3.5 mg/kg, route intravenous; conditions: in vivo, read-out: Vdss
[16] = Volume of distribution at steady state in Beagle dog at 3.5 mg/kg, iv; assay type: ADME, organism-based, Canis lupus familiaris; design: dose 3.5 mg/kg, route intravenous; conditions: in vivo, read-out: Vdss
[17] = Volume of distribution at steady state in cynomolgus monkey at 3.1 mg/kg, iv; assay type: ADME, organism-based, Macaca fascicularis; design: dose 3.1 mg/kg, route intravenous; conditions: in vivo, read-out: Vdss
[18] = Half life in Sprague-Dawley rat at 3.5 mg/kg, iv; assay type: ADME, organism-based; design: dose 3.5 mg/kg, route intravenous; conditions: in vivo
[19] = Half life in Beagle dog at 3.5 mg/kg, iv; assay type: ADME, organism-based, Canis lupus familiaris; design: dose 3.5 mg/kg, route intravenous; conditions: in vivo
[20] = Half life in cynomolgus monkey at 3.1 mg/kg, iv; assay type: ADME, organism-based, Macaca fascicularis; design: dose 3.1 mg/kg, route intravenous; conditions: in vivo
[21] = Mean residence time in Sprague-Dawley rat at 3.5 mg/kg, iv; assay type: ADME, organism-based; design: dose 3.5 mg/kg, route intravenous; conditions: in vivo
[22] = Mean residence time in Beagle dog at 3.5 mg/kg, iv; assay type: ADME, organism-based, Canis lupus familiaris; design: dose 3.5 mg/kg, route intravenous; conditions: in vivo
[23] = Mean residence time in cynomolgus monkey at 3.1 mg/kg, iv; assay type: ADME, organism-based, Macaca fascicularis; design: dose 3.1 mg/kg, route intravenous; conditions: in vivo
[24] = AUC in Sprague-Dawley rat at 5.6 mg/kg, po; assay type: ADME, organism-based; design: dose 5.6 mg/kg, route oral; conditions: plasma
[25] = AUC in Beagle dog at 4 mg/kg, po; assay type: ADME, organism-based, Canis lupus familiaris; design: dose 4 mg/kg, route oral; conditions: plasma
[26] = AUC in cynomolgus monkey at 5.2 mg/kg, po; assay type: ADME, organism-based, Macaca fascicularis; design: dose 5.2 mg/kg, route oral; conditions: plasma
[27] = Oral bioavailability in Sprague-Dawley rat at 5.6 mg/kg; assay type: ADME, organism-based; conditions: in vivo
[28] = Oral bioavailability in Beagle dog at 4 mg/kg; assay type: ADME, organism-based, Canis lupus familiaris; conditions: in vivo
[29] = Oral bioavailability in cynomolgus monkey at 5.2 mg/kg; assay type: ADME, organism-based, Macaca fascicularis; conditions: in vivo
[30] = Plasma protein binding in rat; assay type: ADME, cell-free; conditions: read-out: PPB (converted)
[31] = Plasma protein binding in cynomolgus monkey; assay type: ADME, cell-free, Macaca fascicularis; conditions: read-out: PPB (converted)
[32] = Plasma protein binding in human; assay type: ADME, cell-free; conditions: read-out: PPB (converted)
[33] = test system: Liver; assay: Intrinsic clearance in dog liver microsomes; assay type: ADME, Canis lupus familiaris, Microsome
[34] = Intrinsic clearance in cynomolgus monkey liver microsomes; assay type: ADME, Macaca fascicularis, Microsome
[35] = test system: Liver microsomes; assay: Intrinsic clearance in human liver microsomes; assay type: ADME, Microsome
[36] = species: Rattus norvegicus; assay: Hepatic blood flow in Sprague-Dawley rat; assay type: ADME, organism-based, Liver
[37] = species: Canis familiaris; assay: Hepatic blood flow in Beagle dog; assay type: ADME, organism-based, Canis lupus familiaris, Liver
[38] = test system: Cynomolgus monkey; assay: Hepatic blood flow in cynomolgus monkey; assay type: ADME, organism-based, Macaca fascicularis, Liver

COc1ccc2ncc(F)c(CCN3CC[C@@H](NCc4cc5c(cn4)OCCO5)[C@H](O)C3)c2n1
IC50 [1]: 0.058 µg/mL (≈ 0.124 µM) | MIC [2]: 0.5 µg/mL (≈ 1.06 µM) | MIC [3]: 0.01 µg/mL (≈ 0.0213 µM) | MIC [4]: 0.03 µg/mL (≈ 0.0639 µM) | logD [5]: 2.16

COc1ccc2ncc(C#N)c(CCN3CCC(NCc4cc5c(cn4)OCS5)CC3)c2c1
IC50 [1]: 0.06 µg/mL (≈ 0.13 µM) | MIC [2]: 0.25 µg/mL (≈ 0.542 µM) | MIC [3]: 0.01 µg/mL (≈ 0.0217 µM) | MIC [4]: 0.01 µg/mL (≈ 0.0217 µM) | IC50 [6]: 2 µM | IC50 [7]: 0.5 µM | logD [5]: 2.32

COc1ccc2ncc(F)c(CCN3CC[C@H](NCc4cc5c(cn4)OCCO5)[C@H](O)C3)c2n1
IC50 [1]: 0.072 µg/mL (≈ 0.153 µM) | MIC [2]: 0.5 µg/mL (≈ 1.06 µM) | MIC [3]: 0.03 µg/mL (≈ 0.0639 µM) | MIC [4]: 0.06 µg/mL (≈ 0.128 µM) | logD [5]: 1.52 | log10cfu [8]: 2 | log10cfu [9]: >=4 | Activity [10]: Active

COc1ccc2nccc([C@@H](O)CN3CCC(NCc4ccc5c(c4)OCCO5)CC3)c2c1
IC50 [11]: 0.008 µg/mL (≈ 0.0178 µM) | MIC [2]: 0.5 µg/mL (≈ 1.11 µM) | MIC [3]: 0.125 µg/mL (≈ 0.278 µM) | MIC [4]: 0.125 µg/mL (≈ 0.278 µM) | logD [5]: 0.87

COc1ccc2ncc(C#N)c(CCN3CCC(NCc4cc5c(cn4)OCCO5)CC3)c2n1
IC50 [1]: 0.144 µg/mL (≈ 0.313 µM) | MIC [2]: 0.5 µg/mL (≈ 1.09 µM) | MIC [3]: 0.01 µg/mL (≈ 0.0217 µM) | MIC [4]: 0.03 µg/mL (≈ 0.0651 µM) | logD [5]: 1.48

COc1ccc2ncc(Cl)c(CCN3CCC(NCc4cc5c(cn4)OCCO5)CC3)c2n1
IC50 [1]: 0.027 µg/mL (≈ 0.0575 µM) | MIC [2]: 0.25 µg/mL (≈ 0.532 µM) | MIC [3]: 0.01 µg/mL (≈ 0.0213 µM) | MIC [4]: 0.01 µg/mL (≈ 0.0213 µM) | IC50 [6]: 2 µM | IC50 [7]: 2 µM | logD [5]: 2.4 | log10cfu [8]: 2 | log10cfu [9]: >=4 | Activity [10]: Active

COc1ccc2ncc(F)c([C@H](O)CN3CCC(NCc4cc5c(cn4)OCCO5)CC3)c2n1
IC50 [1]: 0.098 µg/mL (≈ 0.209 µM) | MIC [2]: 1 µg/mL (≈ 2.13 µM) | MIC [3]: 0.06 µg/mL (≈ 0.128 µM) | MIC [4]: 0.125 µg/mL (≈ 0.266 µM) | IC50 [7]: 63.1 µM

COc1ccc2ncc(F)c(CCN3CCC(NCc4cc5c(cn4)OCCO5)CC3)c2c1
IC50 [1]: 0.031 µg/mL (≈ 0.0685 µM) | MIC [2]: 0.25 µg/mL (≈ 0.552 µM) | MIC [3]: 0.01 µg/mL (≈ 0.0221 µM) | MIC [4]: 0.03 µg/mL (≈ 0.0663 µM) | IC50 [6]: 6 µM | IC50 [7]: 5 µM | logD [5]: 2.03

COc1ccc2ncc(F)c(CCN3CC[C@@H](NCc4cc5c(cn4)OCCO5)[C@@H](O)C3)c2n1
IC50 [1]: 0.051 µg/mL (≈ 0.109 µM) | MIC [2]: 0.5 µg/mL (≈ 1.06 µM) | MIC [3]: 0.01 µg/mL (≈ 0.0213 µM) | MIC [4]: 0.06 µg/mL (≈ 0.128 µM) | logD [5]: 1.38 | log10cfu [8]: 2 | log10cfu [9]: >=4 | Activity [10]: Active

COc1ccc2nccc([C@@H](O)CN3CCC(NCc4cc5c(cn4)OCCO5)CC3)c2n1
IC50 [1]: 0.016 µg/mL (≈ 0.0354 µM) | IC50 [11]: 0.056 µg/mL (≈ 0.124 µM) | MIC [2]: 2 µg/mL (≈ 4.43 µM) | MIC [3]: 0.06 µg/mL (≈ 0.133 µM) | MIC [4]: 0.125 µg/mL (≈ 0.277 µM) | IC50 [6]: 4 µM | IC50 [7]: 25.1 µM | logD [5]: 0.62

COc1ccc2ncc(F)c(CCN3CCC(NCc4cc5c(cn4)OCCO5)CC3)c2n1
IC50 [1]: 0.051 µg/mL (≈ 0.112 µM) | MIC [2]: 0.125 µg/mL (≈ 0.276 µM) | MIC [3]: 0.01 µg/mL (≈ 0.022 µM) | MIC [4]: 0.01 µg/mL (≈ 0.022 µM) | logD [5]: 1.81 | log10cfu [8]: 2 | log10cfu [9]: >=4 | Activity [10]: Active

COc1ccc2ncc(F)c(CCN3CC[C@H](NCc4cc5c(cn4)OCCO5)[C@@H](O)C3)c2n1
IC50 [1]: 0.058 µg/mL (≈ 0.124 µM) | MIC [2]: 0.5 µg/mL (≈ 1.06 µM) | MIC [3]: 0.01 µg/mL (≈ 0.0213 µM) | MIC [4]: 0.03 µg/mL (≈ 0.0639 µM) | logD [5]: 2.1

COc1ccc2ncc(F)c([C@@H](O)CN3CCC(NCc4cc5c(cn4)OCCO5)CC3)c2n1
IC50 [1]: 0.078 µg/mL (≈ 0.166 µM) | MIC [2]: 0.5 µg/mL (≈ 1.06 µM) | MIC [3]: 0.03 µg/mL (≈ 0.0639 µM) | MIC [4]: 0.06 µg/mL (≈ 0.128 µM) | IC50 [6]: 5 µM | IC50 [7]: 79.4 µM | logD [5]: 0.59 | log10cfu [8]: 2 | log10cfu [9]: >=4 | Activity [10]: Active | clearance [12]: 67.2 mL/min/kg | clearance [13]: 16.7 mL/min/kg | clearance [14]: 15.2 mL/min/kg | Vd [15]: 9.8 L/kg | Vd [16]: 16.5 L/kg | Vd [17]: 4.1 L/kg | half-life [18]: 2.5 h | half-life [19]: 12.4 h | half-life [20]: 5.6 h | MRT [21]: 2.5 h | MRT [22]: 16.5 h | MRT [23]: 4.6 h | AUC [24]: 720 ng·h/mL | AUC [25]: 2510 ng·h/mL | AUC [26]: 720 ng·h/mL | bioavailability [27]: 51% | bioavailability [28]: 76% | bioavailability [29]: 12% | fraction unbound [30]: 0.589 | fraction unbound [31]: 0.354 | fraction unbound [32]: 0.307 | CL [33]: 0.7 mL/min/g | CL [34]: 4.8 mL/min/g | CL [35]: < 0.6 mL/min/g | QH [36]: 100% | QH [37]: 35% | QH [38]: 35%
